Test results from patent publication US20240374487A1, “ANTI-AGING AGENT, COSMETIC PRODUCT, WET TOWEL, AND HYGIENE PRODUCT” (VB JAPAN TECHNOLOGY CO., LTD., priority 2021, published 2024).

Columns and labels:
AQP-3 = AQP-3 mRNA level under oxidative stress (qRT-PCR); format: cell-based, human
Experimental: (§1) Normal human dermal fibroblasts were cultured for 2 hours in a culture solution to which 0.2 mM hydrogen peroxide was added, then washed off with PBS, and replaced with a normal medium to continue the cultivation. VB2 and VB3 were each added at any timing before or after hydrogen peroxide was added, and co-cultured for 4 hours. Thereafter, the cells or the culture solution were recovered.
(§2) According to the procedure described in “Measurement of Cell Viability” above, normal human dermal fibroblasts were treated and cultured (co-culture), and cells or the culture solution was recovered. The notation of the sample in FIGS. 8 and 9, which are graphs showing the results, is also the same as in the “Measurement of Cell Viability” described above.
(§3) The measurement of aquaporin was performed for AQP-1 and AQP-3 by a qRT-PCR method, and the measurement result was obtained by a ΔΔCt method. […] The qRT-PCR method is s specifically described in “qRT-PCR method” described later.
(§4) The qRT-PCR method used for the measurement of AGE receptor, heat shock protein, aquaporin, hyaluronic acid, and Elastin will be described. In the qRT-PCR method, 500 ng of the obtained total RNA was used as a template for PCR, and one step RT-PCR capable of performing CDNA synthesis by a reverse transcription reaction (Reverse Transcriptase; RT reaction) and quantitative PCR in one test tube was performed using Luna Universal One-Step qRT-PCR Kit.
(§5) As a PCR device, Thermal Cycler Dice Real Time System II manufactured by Takara was used. As one reaction system, 10 μL of Luna Universal One-Step Reaction Mix (2×), 1 μL of Luna WarmStart RT Enzyme Mix (20×), 0.8 μL of Forward primer (10 μM), 0.8 μL of Reverse primer, and Total RNA as a template for the PCR were used, and the total amount was adjusted to 20 μL in Nuclease-free Water.
(§6) The reaction was performed under the conditions of 1 cycle of 30 seconds at 95° C., and further cycles of 5 seconds at 95° C. and 30 seconds at 60° C. for 50 cycles. A variation in mRNA expression by 4 times or more (2 cycles as PCR reaction) was determined as a significant difference.

[1] = test system: AGE receptor (FEEL-1, FEEL-2, CD-36, AGE-R1, AGE-R2, AGE-R3 and RAGE); assay: mRNA levels of AGE receptors by qRT-PCR in normal human dermal fibroblasts; format: cell-based; conditions: VB alone, no AGE, 37° C. 4 hours, compared with untreated group
Experimental: (§7) Normal human dermal fibroblasts (NHDF), juvenile foreskin (C-12300, PromoCell) were cultured in a dedicated medium, Fibroblast Growth Medium (C-23010, PromoCell) at 37° C. in a 5% CO2 incubator.
(§8) First, as a co-existence group of VB and AGE, normal human dermal fibroblasts were treated with AGE (100 μg/mL), and the above VB2 (concentration after dilution: 115 μg/ml) and VB3 (concentration after dilution: 1000 μg/mL) diluted to an accurate 1/1000 amount were each added and retained at 37° C. for 4 hours. […]
(§9) Then, total RNA was extracted from the cells using Trizol reagent (Ambion), and mRNA levels of AGE receptor (FEEL-1, FEEL-2, CD-36, AGE-R1, AGE-R2, AGE-R3 and RAGE) and heat shock protein (Hsp104, gp96, Hsp90, Hsp70, Hsp60, and Hsp32) were measured by qRT-PCR (one-step quantitative reverse transcription-polymerase chain reaction) method. […]
as §4, with “Kit. […]” for “Kit.”

[2] = test system: heat shock protein (Hsp104, gp96, Hsp90, Hsp70, Hsp60, and Hsp32); assay: mRNA levels of heat shock proteins by qRT-PCR in fibroblasts; format: cell-based, human; conditions: 4 hours
Experimental: as §7
First, as a co-existence group of VB and AGE, normal human dermal fibroblasts were treated with AGE (100 μg/mL), and the above VB2 (concentration after dilution: 115 μg/ml) and VB3 (concentration after dilution: 1000 μg/mL) diluted to an accurate 1/1000 amount were each added and retained at 37° C. for 4 hours.
In addition, as the VB single stimulation group, normal human dermal fibroblasts were not treated with AGE, and the above VB2 and VB3 diluted to an accurate 1/1000 amount were each added and held at 37° C. for 4 hours. Furthermore, as the AGE single stimulation group, normal human dermal fibroblasts were treated with AGE and kept at 37° C. for 4 hours without addition of VB2 or VB3. In addition, as an untreated group, normal human dermal fibroblasts were not treated with AGE, and were kept at 37° C. for 4 hours without adding VB2 or VB3.
Then, total RNA was extracted from the cells using Trizol reagent (Ambion), and mRNA levels of AGE receptor (FEEL-1, FEEL-2, CD-36, AGE-R1, AGE-R2, AGE-R3 and RAGE) and heat shock protein (Hsp104, gp96, Hsp90, Hsp70, Hsp60, and Hsp32) were measured by qRT-PCR (one-step quantitative reverse transcription-polymerase chain reaction) method.
The measurement results for AGE receptor are shown in FIG. 1, and the measurement results for heat shock protein are shown in FIG. 2. In FIG. 1 and FIG. 2, for the co-existence group of AGE and VB, samples to which VB2 and VB3 were added are indicated as VB2(+)AGE and VB3(+)AGE, respectively, and these values were shown in comparison with the AGE single stimulation group. In addition, for the VB single stimulation group, samples to which VB2 and VB3 were added were indicated as VB2 alone and VB3 alone, respectively, and these values were shown in comparison with the untreated group.
as §4
As a PCR device, Thermal Cycler Dice Real Time System II manufactured by Takara was used. […]
as §6

FEEL-2 = FEEL-2 mRNA level by qRT-PCR in AGE-treated fibroblasts; format: cell-based, human; conditions: co-existence with AGE 100 μg/mL, 4 hours, compared with AGE single stimulation group
Experimental: as §7, §8, §9
as §4, with “Kit. […]” for “Kit.”

intracellular ROS [3] = assay: Intracellular ROS against AGE (DCF-DA fluorescence); format: cell-based, human; conditions: AGE 100 μg/mL, 4 hours, FIG. 3
Experimental: as §7
Normal human dermal fibroblasts were treated with AGE (100 μg/mL) and maintained at 37° C. for 4 hours with the addition of VB2 and VB3, respectively. Here, VB2 and VB3 were added at concentrations of 1 μg/mL, 10 μg/mL, 100 μg/mL, and 300 μg/mL, respectively. In FIGS. 3 and 4, which are graphs showing the results, those to which VB2was added were denoted as “VB2-AGE”, and those to which VB3 was added were denoted as “VB3-AGE”.
As Control, measurement was also performed on normal human dermal fibroblasts which were not treated with AGE and were held at 37° C. for 4 hours without addition of VB2 or VB3, and as an AGE single stimulation group, measurement was also performed on normal human dermal fibroblasts which were treated with AGE (100 μg/mL) and were held at 37° C. for 4 hours without addition of VB2 or VB3 (in FIGS. 3 and 4, it is denoted as “AGE”.).
Measurement of intracellular ROS was performed using fluorescence using dichlorofluorescin diacetate (DCF-DA; Invitrogen, Carlsbad, CA, USA). […] The intracellular ROS level was measured at an excitation wavelength of 525 nm using fluorescence intensity using the micro plate reader (SYNERGY/HT, BioTek, Japan).

hyaluronic acid = assay: Hyaluronic acid secreted into culture supernatant (ELISA); format: cell-based, human
Experimental: as §1
(§10) According to the procedure described in “Measurement of Cell Viability” above, normal human dermal fibroblasts were treated and cultured (co-culture), and cells or the culture solution was recovered. The concentrations of VB2 and VB3 used and the notation of the samples in FIGS. 10 and 11, which are graphs showing the results, are also similar to the above “Measurement of Cell Viability”.
(§11) The production amounts of hyaluronic acid and Elastin were measured by an ELISA method. The results of measuring the amount of hyaluronic acid secreted from normal human dermal fibroblasts into the culture supernatant by the ELISA method are shown in FIG. 10, and the results of measuring the amount of intracellular Elastin production by the ELISA method are shown in FIG. 11.

FEEL-1 = FEEL-1 mRNA level by qRT-PCR in AGE-treated fibroblasts; format: cell-based, human; conditions: co-existence with AGE 100 μg/mL, 4 hours, compared with AGE single stimulation group
Experimental: as §7, §8, §9
as §4, with “Kit. […]” for “Kit.”

SOD = SOD amount against hydrogen peroxide (SOD Assay Kit); format: cell-based, human; conditions: added before and after 0.2 mM hydrogen peroxide, 1-300 μg/mL (H2O2 only 56% of Control)
Experimental: Superoxide (SOD) was measured using SOD Assay Kit (Cayman Chemical, Ann arbor, MI, USA). Cells that had been subjected to various treatments were incubated for 24 hours, and then a Lysis buffer was added, homogenized, and centrifuged. Then, 10 μL of each sample was mixed with 200 μL of xanthine oxidase at room temperature. After 30 minutes, the absorbance at 450 nm was measured.
as §1
According to the procedure described in “Measurement of Cell Viability” above, normal human dermal fibroblasts were treated and cultured (co-culture), and cells or the culture solution was recovered. The concentrations of VB2 and VB3 used and the notation of the samples in FIGS. 6 and 7, which are graphs showing the results, are also similar to the above “Measurement of Cell Viability”. […]

Elastin = assay: Intracellular Elastin production (ELISA); format: cell-based, human
Experimental: as §1, §10, §11

[4] = test system: normal human dermal fibroblasts; assay: Cell viability under hydrogen peroxide oxidative stress (Cell counting-8 kit); format: cell-based; conditions: for cell viability, trend: 1-300 μg/mL
Experimental: as §7, §1
In FIG. 5 which is a graph showing the results, a sample obtained by adding VB2 or VB3 after adding hydrogen peroxide was denoted as “H2O2-VB2” and “H2O2-VB3”, respectively, and a sample obtained by adding hydrogen peroxide after adding VB2 or VB3 was denoted as “VB2-H2O2” and “VB3-H2O2”, respectively.
Here, VB2 and VB3 were added at concentrations of 1 μg/mL, 10 μg/mL, 100 μg/mL, and 300 μg/mL, respectively.
The normal human dermal fibroblasts to which neither hydrogen peroxide nor VB2 nor VB3 was added were treated in the same manner as described above, and measured as Control. In addition, a sample to which VB2 or VB3 was not added (in FIG. 5, it is denoted as “H2O2”) was also treated in the same manner as described above, and measurement was performed.
The number of surviving cells in normal human dermal fibroblasts was measured using Cell counting −8 kit (DOJINDO: , Japan).

intracellular ROS [5] = assay: Intracellular ROS production against hydrogen peroxide (DCF-DA); format: cell-based, human
Experimental: Measurement of intracellular ROS was performed using fluorescence using dichlorofluorescin diacetate (DCF-DA; Invitrogen, Carlsbad, CA, USA). Specifically, cells were washed with PBS, and then incubated with 10 μM DCF-DA at 37° C. for 20 minutes. The intracellular ROS level was measured at an excitation wavelength of 525 nm using fluorescence intensity using the micro plate reader (SYNERGY/HT, BioTek, Japan).
as §1
According to the procedure described in “Measurement of Cell Viability” above, normal human dermal fibroblasts were treated and cultured (co-culture), and cells or the culture solution was recovered. The concentrations of VB2 and VB3 used and the notation of the samples in FIGS. 6 and 7, which are graphs showing the results, are also similar to the above “Measurement of Cell Viability”.
The measurement of intracellular ROS and the measurement of superoxide (SOD) were performed by the same methods as the methods described in “Measurement of Intracellular Reactive Oxygen (ROS) Production and Superoxide (SOD) against AGE” above, respectively.
FIGS. 6 and 7 show the results of each sample when Control is 100%.

AQP-1 = AQP-1 mRNA level under oxidative stress (qRT-PCR); format: cell-based, human
Experimental: as §1, §2, §3, §4, §5, §6

RAGE = RAGE mRNA level by qRT-PCR in AGE-treated fibroblasts; format: cell-based, human; conditions: co-existence with AGE 100 μg/mL, 4 hours, compared with AGE single stimulation group
Experimental: as §7, §8, §9
as §4, with “Kit. […]” for “Kit.”

[6] = added before or after 0.2 mM hydrogen peroxide
[7] = added in advance before oxidative stress, compared with addition after
[8] = added in advance before applying oxidative stress

## K11H[(VO)3(SbW9O33)2] [VB2]
AQP-3; [6]
  mRNA level of AQP-3: increased
AQP-3; [7]
  AQP-3 mRNA repair ability, addition before vs after oxidative stress: tended to have a stronger repair ability
[1]
  mRNA expression of AGE receptor: did not affect
[2]; VB alone, no AGE, compared with untreated group
  mRNA expression of Hsp: did not affect
[2]; co-existence with AGE 100 μg/mL, compared with AGE single stimulation group
  mRNA levels of all Hsps other Hsp 90 among the examined Hsps: significantly increased
FEEL-2
  mRNA level of FEEL-2: significantly increased
Intracellular ROS [3]
  intracellular ROS under AGE stimulation: suppress the increase in ROS
Hyaluronic acid; 0.2 mM hydrogen peroxide oxidative stress, culture supernatant
  amount of hyaluronic acid: tended to be recovered
Hyaluronic acid; [7]
  hyaluronic acid repair ability, addition before vs after oxidative stress: tended to have a stronger repair ability
FEEL-1
  mRNA level of FEEL-1: significantly increased
SOD
  SOD amount: tended to be recovered in a concentration-dependent manner
Elastin; added after application of oxidative stress (H2O2 only 56% of Control)
  Elastin production amount: could not be recovered
Elastin; [8]
  Elastin production amount: significant recovery
  concentration at which Elastin production amount was significantly higher than Control: ≥ 100 µg/mL
[4]; added after 0.2 mM hydrogen peroxide, 300 μg/mL, % of Control (H2O2 only 59%)
  maximum cell viability: 76%
[4]; added after 0.2 mM hydrogen peroxide
  cell viability, trend: increased in a concentration-dependent manner
[4]; added in advance before 0.2 mM hydrogen peroxide
  cell viability, trend: significant increase in a concentration-dependent manner
Intracellular ROS [5]; added before and after 0.2 mM hydrogen peroxide, 1-300 μg/mL
  ROS production: suppressed in a concentration-dependent manner
Intracellular ROS [5]; treatment in advance before oxidative stress, compared with addition after
  ROS production: further suppressed
AQP-1; [6]
  mRNA level of AQP-1: increased
AQP-1; [7]
  AQP-1 mRNA repair ability, addition before vs after oxidative stress: tended to have a stronger repair ability
RAGE
  mRNA level of RAGE: significantly increased
